From US20220313670A1, “Methods Of Treating Fabry Disease In Patients Having Renal Impairment” (Amicus Therapeutics, Inc., priority 2019, published 2022)

How the values were obtained:
[1] = Plasma migalastat concentration in two Fabry patients with renal impairment (P1, P2; Example 3); format: in vivo, human; details: for concentration at 0 h: human, plasma, Fabry patient P1 (moderate renal impairment), Pre-dose (0 h)
Experimental: Migalastat levels can be measured via methods known in the art. […] Microcentrifuge tubes containing 100 μl of the tissue homogenate or 50 μl of plasma may then be spiked with 500 ng/mL 13C d2-AT1001 HCl internal standard (manufactured by MDS Pharma Services). A 600 μl volume of 5 mM HCl in 95/5 MeOH:H2O can then be added and the tubes vortexed for 2 minutes, followed by centrifugation at 21000×g for 10 minutes at room temperature. The supernatants may then be collected into a clean, 96-well plate, diluted with 5 mM HCl in dH2O and applied to a 96-well solid phase extraction (SPE) plate (Waters Corp., Milford Mass.). […] The liquid chromatography can be conducted using an ACN:water:formate binary mobile phase system (mobile phase A: 5 mM ammonium formate, 0.5% formic acid in 95:5 ACN:water; mobile phase B: 5 mM ammonium formate, 0.5% formic acid in 5:47.5:47.5 ACN:MeOH:water) with a flow rate of 0.7 mL/minute on an Halo HILIC column (150×4.6 mm, 2.7 μm) (Advanced Materials Technology, Inc.). MS/MS analysis may be carried out under APCi positive ion mode. The same procedure may be followed for migalastat determination in plasma except without homogenization. […] A 12-point calibration curve and quality control samples may be prepared. […] To derive approximate molar concentrations, one gram of tissue may be estimated as one mL of volume.
Thus, two Fabry patients with renal impairment were evaluated. One patient (P1) had moderate renal impairment, while the other patient (P2) had severe renal impairment. […] The comparison with the results from the FACETS study allows for comparison of PK in the Fabry population with mostly normal, but some mild and a few moderately impaired Fabry patients. None had severe renal impairment because these patients were excluded from the study.

[2] = Highest recorded migalastat exposure in a Fabry patient after a single dose of 450 mg; format: in vivo, human; details: single dose of 450 mg
Description: FIGS. 2A-D show the mean simulation plots for each regimen.

[3] = Fabry patient P1, moderate renal impairment

## OC[C@H]1NC[C@H](O)[C@@H](O)[C@H]1O [migalastat, (2R,3S,4R,55)-2-(hydroxymethyl) piperdine-3,4,5-triol]
[1]; [3]
  increase of C48h concentration over 6 months: 49%
  increase of Cmax over 6 months: 33%
[1]; Migalastat Conc 6 months later
  concentration at 0 h: 36.4 ng/mL
[1]; Migalastat Conc, first set
  concentration at 0 h: 19.9 ng/mL
[2]
  highest exposure of migalastat in a Fabry patient: 53035 ng·h/mL
